# Reference: PubChem BioAssay AID1259407 (Chemical Carcinogenesis Research Information System (CCRIS), 2018)
# Entries after “also recorded” stand apart in the source; their conditions may differ. Activity calls are given as the source filed them. No rule for the calls is given here.
# Test system: CCRIS mutagenicity, Ames/micronucleus/aberration tests
# Assay: CCRIS mutagenicity studies
smiles,measurement,setting,value
OO,mutagenic call,"End Point: IN VITRO CHROMOSOMAL ABERRATIONS, Test System: CHO CELLS, Metabolic Activation: NONE",active; positive (structural changes)
same,mutagenic call,"End Point: IN VITRO CHROMOSOMAL ABERRATIONS, Test System: CHO-K1, Metabolic Activation: NONE",active; positive
same,mutagenic call,"End Point: IN VITRO CHROMOSOMAL ABERRATIONS, Test System: SYRIAN HAMSTER EMBRYO (SHE) CELLS, Metabolic Activation: NONE",active; positive (structural changes)
same,mutagenic call,"End Point: IN VITRO MICRONUCLEUS, Test System: CHL/IU CELLS, Metabolic Activation: NONE",active; positive
same,mutagenic call,"End Point: IN VITRO MICRONUCLEUS, Test System: CHO CELLS, Metabolic Activation: RAT, LIVER, S-9, AROCLOR 1254",inactive; negative
same,mutagenic call,"End Point: IN VITRO MICRONUCLEUS, Test System: HUMAN LYMPHOCYTES, Metabolic Activation: NONE",inactive; negative; main effect of h2o2 was necrosis
same,mutagenic call,"End Point: In vitro micronucleus, Test System: Chinese hamster V79 cells, Metabolic Activation: None",active; positive (hibiscus tiliaceus l methanolic extract at doses above 0.010 mg/ml had
same,mutagenic call,"End Point: In vitro micronucleus, Test System: Chinese hamster ovary (CHO) cells, Metabolic Activation: None","active; positive (lycopene (10, 25 and 50 um) significantly reduced the number of micron"
same,mutagenic call,"Test System: AMES SALMONELLA TYPHIMURIUM, Strain/Indicator: SB1106, Metabolic Activation: NONE, Method: PREINCUBATION",active; positive
same,mutagenic call,"Test System: AMES SALMONELLA TYPHIMURIUM, Strain/Indicator: SB1106, Metabolic Activation: NONE, Method: STANDARD PLATE",active; positive
same,mutagenic call,"Test System: AMES SALMONELLA TYPHIMURIUM, Strain/Indicator: SB1106P, Metabolic Activation: NONE, Method: PREINCUBATION",active; positive
same,mutagenic call,"Test System: AMES SALMONELLA TYPHIMURIUM, Strain/Indicator: SB1106P, Metabolic Activation: NONE, Method: STANDARD PLATE",active; positive
same,mutagenic call,"Test System: AMES SALMONELLA TYPHIMURIUM, Strain/Indicator: SB1111, Metabolic Activation: NONE, Method: PREINCUBATION",inactive; negative
same,mutagenic call,"Test System: AMES SALMONELLA TYPHIMURIUM, Strain/Indicator: SB1111, Metabolic Activation: NONE, Method: STANDARD PLATE",active; positive
same,mutagenic call,"Test System: AMES SALMONELLA TYPHIMURIUM, Strain/Indicator: TA92, Metabolic Activation: NONE, Method: PREINCUBATION",inactive; negative
same,mutagenic call,"Test System: AMES SALMONELLA TYPHIMURIUM, Strain/Indicator: TA97, Metabolic Activation: NONE, Method: STANDARD PLATE",active; positive
same,mutagenic call,"Test System: AMES SALMONELLA TYPHIMURIUM, Strain/Indicator: TA97, Metabolic Activation: RAT, LIVER, S-9, PHENOBARBITAL, Method: LIQUID INCUBATION",active; positive
same,mutagenic call,"Test System: AMES SALMONELLA TYPHIMURIUM, Strain/Indicator: TA97, Metabolic Activation: RAT, LIVER, S-9, PHENOBARBITAL, Method: STANDARD PLATE",active; positive
same,mutagenic call,"Test System: AMES SALMONELLA TYPHIMURIUM, Strain/Indicator: TA98, Metabolic Activation: NONE, Method: PREINCUBATION",inactive; negative
same,mutagenic call,"Test System: AMES SALMONELLA TYPHIMURIUM, Strain/Indicator: TA98, Metabolic Activation: NONE, Method: STANDARD PLATE",inactive; negative
same,mutagenic call,"Test System: AMES SALMONELLA TYPHIMURIUM, Strain/Indicator: TA98, Metabolic Activation: RAT, LIVER, S-9, AROCLOR 1254, Method: PREINCUBATION",inactive; negative
same,mutagenic call,"Test System: AMES SALMONELLA TYPHIMURIUM, Strain/Indicator: TA98, Metabolic Activation: RAT, LIVER, S-9, AROCLOR 1254, Method: STANDARD PLATE",inactive; negative
same,mutagenic call,"Test System: AMES SALMONELLA TYPHIMURIUM, Strain/Indicator: TA100, Metabolic Activation: NONE, Method: PREINCUBATION",inactive; negative
same,mutagenic call,"Test System: AMES SALMONELLA TYPHIMURIUM, Strain/Indicator: TA100, Metabolic Activation: NONE, Method: STANDARD PLATE",active; positive
same,mutagenic call,"Test System: AMES SALMONELLA TYPHIMURIUM, Strain/Indicator: TA100, Metabolic Activation: RAT, LIVER, S-9, AROCLOR 1254, Method: PREINCUBATION",inactive; negative
same,mutagenic call,"Test System: AMES SALMONELLA TYPHIMURIUM, Strain/Indicator: TA100, Metabolic Activation: RAT, LIVER, S-9, AROCLOR 1254, Method: STANDARD PLATE",active; positive
same,mutagenic call,"Test System: AMES SALMONELLA TYPHIMURIUM, Strain/Indicator: TA102, Metabolic Activation: RAT, LIVER, S-9, AROCLOR 1254, Method: PREINCUBATION",inactive; negative
same,mutagenic call,"Test System: AMES SALMONELLA TYPHIMURIUM, Strain/Indicator: TA104, Metabolic Activation: NONE, Method: PREINCUBATION",active; positive
same,mutagenic call,"Test System: AMES SALMONELLA TYPHIMURIUM, Strain/Indicator: TA104, Metabolic Activation: NONE, Method: STANDARD PLATE",active; positive
same,mutagenic call,"Test System: AMES SALMONELLA TYPHIMURIUM, Strain/Indicator: TA1535, Metabolic Activation: NONE, Method: PREINCUBATION",inactive; negative
same,mutagenic call,"Test System: AMES SALMONELLA TYPHIMURIUM, Strain/Indicator: TA1535, Metabolic Activation: NONE, Method: STANDARD PLATE",inactive; negative
same,mutagenic call,"Test System: AMES SALMONELLA TYPHIMURIUM, Strain/Indicator: TA1535, Metabolic Activation: RAT, LIVER, S-9, AROCLOR 1254, Method: STANDARD PLATE",inactive; negative
same,mutagenic call,"Test System: AMES SALMONELLA TYPHIMURIUM, Strain/Indicator: TA1537, Metabolic Activation: NONE, Method: STANDARD PLATE",inactive; negative
same,mutagenic call,"Test System: AMES SALMONELLA TYPHIMURIUM, Strain/Indicator: TA1537, Metabolic Activation: RAT, LIVER, S-9, AROCLOR 1254, Method: STANDARD PLATE",inactive; negative
same,mutagenic call,"Test System: AMES SALMONELLA TYPHIMURIUM, Strain/Indicator: TA1537, Metabolic Activation: RAT, LIVER, S-9, PHENOBARBITAL, Method: LIQUID INCUBATION",active; positive
same,mutagenic call,"Test System: AMES SALMONELLA TYPHIMURIUM, Strain/Indicator: TA1537, Metabolic Activation: RAT, LIVER, S-9, PHENOBARBITAL, Method: STANDARD PLATE",active; positive
same,mutagenic call,"Test System: AMES SALMONELLA TYPHIMURIUM, Strain/Indicator: TA1538, Metabolic Activation: NONE, Method: STANDARD PLATE",inactive; negative
same,mutagenic call,"Test System: AMES SALMONELLA TYPHIMURIUM, Strain/Indicator: TA1538, Metabolic Activation: RAT, LIVER, S-9, AROCLOR 1254, Method: STANDARD PLATE",inactive; negative
same,mutagenic call,"Test System: AMES SALMONELLA TYPHIMURIUM, Strain/Indicator: TA1975, Metabolic Activation: NONE, Method: PREINCUBATION",inactive; negative
same,mutagenic call,"Test System: AMES SALMONELLA TYPHIMURIUM, Strain/Indicator: TA2638, Metabolic Activation: NONE, Method: STANDARD PLATE",active; positive
same,mutagenic call,"Test System: AMES SALMONELLA TYPHIMURIUM, Strain/Indicator: TA2638A, Metabolic Activation: NONE, Method: STANDARD PLATE",active; positive
same,mutagenic call,"Test System: AMES SALMONELLA TYPHIMURIUM, Strain/Indicator: YG3001, Metabolic Activation: NONE, Method: PREINCUBATION",inactive; negative
same,mutagenic call,"Test System: AMES SALMONELLA TYPHIMURIUM, Strain/Indicator: YG3002, Metabolic Activation: NONE, Method: PREINCUBATION",inactive; negative
same,mutagenic call,"Test System: AMES SALMONELLA TYPHIMURIUM, Strain/Indicator: YG3003, Metabolic Activation: NONE, Method: PREINCUBATION",active; positive
same,mutagenic call,"Test System: Ames Salmonella typhimurium, Strain/Indicator: TA102, Metabolic Activation: None, Method: Preincubation",active; positive (decrease in mutagenicity when 0.99-15.90 mg/plate of chloroform extrac; also recorded: active; positive (dose related decrease in mutagenicity when 1.82-7.30 mg/plate of metha
same,mutagenic call,"Test System: Ames Salmonella typhimurium, Strain/Indicator: TA102, Metabolic Activation: Rat, Liver, S-9, Aroclor 1254, Method: Preincubation",active; positive (decrease in mutagenicity when 0.99-15.90 mg/plate of chloroform extrac; also recorded: active; positive (decrease in mutagenicity when 0.46 or 0.91 mg/plate of methanol extrac
same,mutagenic call,"Test System: CHINESE HAMSTER G10, Strain/Indicator: G10 (GPT)/6-THIOGUANINE, Metabolic Activation: NONE",inactive; negative
same,mutagenic call,"Test System: CHINESE HAMSTER G12, Strain/Indicator: G12 (GPT)/6-THIOGUANINE, Metabolic Activation: NONE",active; positive
same,mutagenic call,"Test System: CHINESE HAMSTER V79 CELLS, Strain/Indicator: V79 CELLS (HPRT)/6-THIOGUANINE, Metabolic Activation: NONE, Method: PREINCUBATION",inactive; negative
same,mutagenic call,"Test System: CHINESE HAMSTER V-79, Strain/Indicator: V-79 (HPRT)/6-THIOGUANINE, Metabolic Activation: NONE",inactive; negative
same,mutagenic call,"Test System: CHINESE HAMSTER V-79, Strain/Indicator: V-79/6-THIOGUANINE, Metabolic Activation: NONE, Method: FLASK ASSAY",inactive; negative
same,mutagenic call,"Test System: CHINESE HAMSTER V-79, Strain/Indicator: V-79/6-THIOGUANINE, Metabolic Activation: NONE, Method: STANDARD PLATE",active; positive
same,mutagenic call,"Test System: CHINESE HAMSTER V-79, Strain/Indicator: V-79/8-AZAGUANINE, Metabolic Activation: NONE",active; positive
same,mutagenic call,"Test System: Chinese hamster ovary cells, Strain/Indicator: EM9 (HPRT)/6-Thioguanine, Metabolic Activation: None",active; positive
same,mutagenic call,"Test System: E. COLI, Strain/Indicator: WP2 (PKM101), Metabolic Activation: NONE, Method: STANDARD PLATE",active; positive
same,mutagenic call,"Test System: E. COLI, Strain/Indicator: WP2, Metabolic Activation: NONE, Method: STANDARD PLATE",inactive; negative
same,mutagenic call,"Test System: E. COLI, Strain/Indicator: WP2, Metabolic Activation: RAT, LIVER, S-9, AROCLOR 1254, Method: STANDARD PLATE",inactive; negative
same,mutagenic call,"Test System: E. COLI, Strain/Indicator: WP2 UVRA (PKM101), Metabolic Activation: NONE, Method: STANDARD PLATE",active; positive
same,mutagenic call,"Test System: HCT116 COLON CANCER CELLS, Strain/Indicator: HCT116 CELLS (HPRT)/6-THIOGUANINE, Metabolic Activation: NONE, Method: PREINCUBATION",active; positive
same,mutagenic call,"Test System: HUMAN T LYMPHOCYTES, Strain/Indicator: PRIMARY CULTURES (HPRT)/6-THIOGUANINE, Metabolic Activation: NONE, Method: PREINCUBATION",active; positive
same,mutagenic call,"Test System: MOUSE LYMPHOMA, Strain/Indicator: L5178Y (TK+/TK-), Metabolic Activation: NONE, Method: SUSPENSION/PLATE",active; positive
same,mutagenic call,"Test System: UDS HUMAN FIBROBLASTS, Strain/Indicator: THY INCORP (NON-S-PHASE), Metabolic Activation: NONE, Method: AUTORADIOGRAPHY",active; positive
same,mutagenic call,"Test System: UDS HUMAN FIBROBLASTS, Strain/Indicator: THY INCORP, Metabolic Activation: NONE, Method: AUTORADIOGRAPHY",active; positive
